Results on one molecule are retold here after patent US10085449B2, “N-[1-((6-chloropyridin-3-yl)methyl)pyridin-2(1H)-ylidene]-2,2,2- trifluoroacetamide for control of agricultural/horticultural pests” (priority 2010, dated 2018).

Where two headings read alike, the source gives them in different places.

Data set [1] deals with house fly crude enzyme extract. Put plainly: In vitro metabolic test using house fly crude enzyme extract. The format is in vitro ADME. Particulars: house fly crude enzyme extract with NADP+ regenerating system, 25° C., 40 hours, LC/MS. The protocol:
As mentioned in Pest Management Science, 59(3), 347-352 (2003) and the Journal of Pesticide Science, 29(2), 110-116 (2004), imidacloprid is known to be inactivated by incurring oxidative metabolism, which is thought to be one mechanism of acquiring resistance to this agent. The following experiment was carried out to confirm the effects in pests which have acquired such resistance.
An amount of 10 mL of a potassium phosphate buffer solution (pH 7.4, containing 1 mM EDTA) was added to adult house flies (0.645 g), and the flies were thoroughly homogenized in a Physcotron (Niti-On Medical and Physical Instruments Manufacturing Co.). The homogenate was then centrifuged at 10,000 g for 15 minutes. The resulting supernatant was additionally centrifuged at 100,000 g for 60 minutes, giving a precipitate. The precipitate was dissolved in 1 mL of a potassium phosphate buffer, and the resulting solution was used as the crude enzyme extract. The enzyme extraction operations were all carried out on ice or at 4° C.
The reagents were mixed in the following proportions within a 1.5 mL tube, and the reaction was effected at 25° C. for 40 hours. Following the reaction, 1 mL of acetone was added and the mixture was stirred, following which the precipitate that formed was centrifuged at 12,000 rpm for 5 minutes. […]

The test system of data set [2] is brown rice planthopper having a low susceptibility to insecticides. The format is in vivo. The settings on record: 0.05 mg/seedling soil drenching. As for the experimental part:
(§1) Rice seedlings grown in pots were subjected to soil drenching treatment with solutions of the inventive compounds at a predetermined concentration prepared to 10% acetone/water. Three days after treatment, ten second-instar brown rice planthopper larvae having a low susceptibility to insecticides were released onto each seedling. The seedlings and insects were then held in an incubation chamber at 25° C. (16-hour period of light, 8-hour dark period). Three days after released, the numbers of live and dead insects were counted, and the mortality was calculated from the following formula. The test was carried out as two replications. Mortality (%)=[number of dead insects/(number of live insects+number of dead insects)]×100
The pests used in this test were insects that had been raised indoors for successive generations over a long period of time (susceptible line), and insects that had been raised indoors for successive generations after being collected (I) in 2007 within Kumamoto Prefecture and (II) in 2005 within Fukuoka Prefecture (field-collected lines).

In data set [3] the test system is Haemaphysalis longicornis. It counts as in vivo. Particulars: 10 ppm acetone solution (30 μL) dry film, larval ticks, 1 day after release. The protocol: Glass vials having a capacity of 4 mL were each filled with 30 μL of an acetone solution containing 200 ppm or 10 ppm of the respective compounds. These filled vials were placed on a shaker and air-dried while being spun, thereby forming dry films of the compounds on the inner walls of the vials. After the vials had been dried for at least 24 hours, ten larval ticks (Haemaphysalis longicornis) were released into each vial, following which the vials were capped. The vials were then left at rest in an incubation chamber at 25° C., 85% humidity and complete darkness. One day after released, the numbers of live and dead ticks were counted, and the mortality was calculated from the following formula.
This test was carried out as two replications. Mortality (%)=[number of dead ticks/(number of live ticks+number of dead ticks)]×100

For data set [4], the system named is small brown planthopper having a low susceptibility to insecticides. Briefly: Small brown planthopper control test, pests having a low susceptibility to insecticides (soil drenching). It counts as in vivo. The settings on record: 0.01 mg/seedling soil drenching. As for the experimental part: as §1, with “second-instar small” for “second-instar”, “brown” for “brown rice”
The pests used in this test were insects that had been raised indoors for successive generations over a long period of time (susceptible line), and insects that had been raised indoors for successive generations after being collected in 2006 within Kumamoto Prefecture (field-collected line).

For `O=[N+]([O-])NC1=NCCN1Cc1ccc(Cl)nc1` [imidacloprid], in data set [1], the “Sum of the surface area percentages for the metabolites” value is 2.55%. Moreover, the Mortality in data set [2] (field-collected line (I) 2007 Kumamoto Prefecture) turned out to be 40%; in data set [2] (field-collected line (II) 2005 Fukuoka Prefecture), 60%; in data set [2] (susceptible line) it was 100%; in data set [3], 4%; in data set [4] (field-collected line (2006 Kumamoto Prefecture)), 50%; in data set [4] (susceptible line), 100%.
